# What was measured:
# [1] = Chlorine dioxide retention in liquid treatment solution, curtain application method; type: physicochemical; details: for Average ClO2 loss in ppm (±STDEV): location A minus location D; for Average ClO2 concentration in ppm (±STDEV): curtain, ambient 65-70 °F
# Description: (§1) In this example, two methods for applying a liquid chlorine dioxide treatment solution were compared with a chlorine dioxide treatment solution having the same volume and initial chlorine dioxide concentration, and using a system with the same delivery rate. One method was a curtain delivery method and the other method was a low-pressure spray method.
# (§2) For both the methods a 330-gallon tote was used as the source fluid reservoir. The tote was filled with about 75 gallons of fresh water and also contained submersible sump-pump that provided the fluid flow to the system. A 6.6 gallon per minute (GPM) rotameter was in line between the pump and the chlorine dioxide delivery system that delivered a concentrated solution of chlorine dioxide (˜1700 ppm) so as to make a liquid chlorine dioxide treatment solution containing an initial concentration (approximately 5 ppm) of chlorine dioxide. The delivery system sat over an aluminum sheet on a slight gradient, to provide a homogenous flow pathway of the treatment solution. The aluminum sheet allowed the treatment fluid to cascade back into the tote for recirculation. During experimentation, the rotameter was set to allow for approximately 4 GPM ([…]) of constant flow, achieved by slight pinching of a ball valve in line and downstream of the rotameter. The treatment solution was circulated through the system for a few minutes and if needed, additional concentrated solution was added to achieve the initial concentration (approximately 5 ppm chlorine dioxide) in the treatment solution before experimental runs commenced.
# For the curtain application, a rain gutter was modified to serve as a trough for the fluid to fill into. The front wall of the trough was modified; it was slightly shorter and was rounded to achieve laminar or predominantly laminar flow of the fluid over the wall of the trough and down over the target belt (belt to be used for moving eggs or other products to be treated with the treatment solution). The trough also contained pieces of plastics filter media (a type of baffle) that converted the turbulent flow of the trough being filled to more homogenous, laminar flow allowing a sheer curtain or waterfall effect to be achieved consistently across the entire length of the trough, such that the curtain fell onto the target belt. […] The curtain was about 11″ in height and approximately 2-2.5 feet wide.
# (§3) Each application method was tested in multiple runs in which the liquid chlorine dioxide treatment solution was maintained at a particular target temperature (approximately 120° F. (this is the high temperature curtain or spray as referred to in Table 3) or a temperature of 60-75° F. (this is the low temperature curtain or spray as referred to in Table 3)).
# (§4) For the curtain application method, the fluid was sampled at four locations: (A) from the hose that delivered treatment solution into the trough, (B) where the fluid entered the trough (C) within the trough near the exit where fluid flowed out of the trough to form the curtain, (D) where the fluid of the curtain fell onto the belt. For the spray application, the fluid was sampled at three locations: (A) from the hose that delivered treatment solution into the sprayer nozzle, (B) from the fluid as it exited the sprayer nozzle, (C) where the fluid of the spray fell onto the belt.
# (§5) Chlorine dioxide concentrations were determined using the Palintest ChlordioX Plus device in accordance with the manufacturer's instructions.
# [2] = Chlorine dioxide retention in liquid treatment solution, low-pressure spray application method; type: physicochemical; details: for Average ClO2 loss in ppm (±STDEV): location A minus location C; for Average ClO2 concentration in ppm (±STDEV): spray, ambient 65-70 °F
# Description: as §1, §2
# For the spray application, a series of nozzles were used to apply the treatment solution.
# as §3, §4, §5
compound,measurement,setting,value
"[O][Cl+][O-] [ClO2, chlorine dioxide]",Average ClO2 loss in ppm (±STDEV),[1]; Curtain with high temperature (approximately 120 °F),1.95 ± 0.58 ppm
same,Average ClO2 loss in ppm (±STDEV),[1]; Curtain with low temperature (60-75 °F),1.37 ± 0.27 ppm
same,Average ClO2 concentration in ppm (±STDEV),"[1]; treatment fluid 65-75 °F, location A (hose delivering treatment solution into trough)",4.88 ± 0.87 ppm
same,Average ClO2 concentration in ppm (±STDEV),"[1]; treatment fluid 65-75 °F, location B (where fluid entered the trough)",4.91 ± 0.83 ppm
same,Average ClO2 concentration in ppm (±STDEV),"[1]; treatment fluid 65-75 °F, location C (within trough near the exit)",4.39 ± 0.79 ppm
same,Average ClO2 concentration in ppm (±STDEV),"[1]; treatment fluid 65-75 °F, location D (where curtain fell onto the belt)",3.51 ± 0.68 ppm
same,Average ClO2 concentration in ppm (±STDEV),"[1]; treatment fluid 110-120 °F, location A (hose delivering treatment solution into trough)",5.28 ± 0.59 ppm
same,Average ClO2 concentration in ppm (±STDEV),"[1]; treatment fluid 110-120 °F, location B (where fluid entered the trough)",4.70 ± 0.28 ppm
same,Average ClO2 concentration in ppm (±STDEV),"[1]; treatment fluid 110-120 °F, location C (within trough near the exit)",4.51 ± 0.52 ppm
same,Average ClO2 concentration in ppm (±STDEV),"[1]; treatment fluid 110-120 °F, location D (where curtain fell onto the belt)",3.34 ± 0.58 ppm
same,Average ClO2 loss in ppm (±STDEV),[2]; Spray with high temperature (approximately 120 °F),3.24 ± 0.67 ppm
same,Average ClO2 loss in ppm (±STDEV),[2]; Spray with low temperature (60-75 °F),1.44 ± 0.38 ppm
same,Average ClO2 concentration in ppm (±STDEV),"[2]; treatment fluid 60-70 °F, location A (hose delivering treatment solution into sprayer nozzle)",4.86 ± 0.54 ppm
same,Average ClO2 concentration in ppm (±STDEV),"[2]; treatment fluid 60-70 °F, location B (fluid as it exited the sprayer nozzle)",4.34 ± 0.71 ppm
same,Average ClO2 concentration in ppm (±STDEV),"[2]; treatment fluid 60-70 °F, location C (where spray fell onto the belt)",3.43 ± 0.61 ppm
same,Average ClO2 concentration in ppm (±STDEV),"[2]; treatment fluid 110-120 °F, location A (hose delivering treatment solution into sprayer nozzle)",5.28 ± 0.58 ppm
same,Average ClO2 concentration in ppm (±STDEV),"[2]; treatment fluid 110-120 °F, location B (fluid as it exited the sprayer nozzle)",3.57 ± 0.53 ppm
same,Average ClO2 concentration in ppm (±STDEV),"[2]; treatment fluid 110-120 °F, location C (where spray fell onto the belt)",2.04 ± 0.45 ppm

# Reference: US12194177B2, “Systems and methods for delivering chlorine dioxide using a liquid curtain” (Sabre IP Acquistionco, LLC, priority 2019, dated 2025)
